The text below walks through data of patent US20250129104A1, “7H-PYRROLO[2,3-D]PYRIMIDINES AND PREPARATION AND USES THEREOF” (BioSplice Therapeutics, Inc., priority 2021, published 2025).

The structures appear in SMILES notation.

The test addresses recombinant DYRK1A kinase (Homo sapiens (Human), UniProt Q13627). The test is described as follows: DYRK1A kinase assay (Ser/Thr 18 peptide Z-lyte FRET assay). In kind it is biochemical. As to conditions: DYRK1A kinase activity; 15 μM ATP, 1 h room temperature; method text calls the value IC50. On the procedure:
Representative compounds were screened using the assay procedure for DYRK1A kinase activity as described below.
Each compound was dissolved in DMSO as a 10 mM stock and used to prepare compound source plates. Serial dilution (1:3, 11-point dose-response curves from 10 μM to 0.00016 μM) and compound transfer was performed using the ECHO 550 (Labcyte, Sunnyvale, CA) into 1536-well black-walled round bottom plates (Corning).
The DYRK1A kinase assay was run using the Ser/Thr 18 peptide Z-lyte assay kit according to manufacturer's instructions (Life Technologies—a Division of Thermo-Fisher). This is a non-radioactive assay using fluorescence resonance energy transfer (FRET) between coumarin and fluorescein to detect kinase activity which is represented as a ratio of coumarin emission/fluorescein emission.
Briefly, recombinant DYRK1A kinase, ATP and Ser/Thr peptide 18 were prepared in 1× Kinase buffer to final concentrations of 0.25 μg/mL, 15 μM, and 4 μM respectively. The mixture was allowed to incubate with the representative compounds for one hour at room temperature. All reactions were performed in duplicate. Unphosphorylated (“0% Control”) and phosphorylated (“100% control”) forms of Ser/Thr 18 served as control reactions. Additionally, an 11-point dose-response curve of Staurosporine (1 uM top) was run to serve as a positive compound control.
After incubation, Development Reagent A was diluted in Development Buffer then added to the reaction and allowed to further incubate for one hour at room temperature. The plate was read at Ex 400 Em […] to detect the coumarin signal and Ex 400 Em 520 to measure the signal (EnVision Multilabel Plate Reader, PerkinElmer).
The Emission ratio (Em) was calculated as a ratio of the coumarin (C) emission signal (at 445 nm)/Fluorescein (F) emission signal (at 520 nm). The percent phosphorylation was then calculated using the following formula: [1−((Em ratio×F100%)−C100%)/((C0%−C100%)+(Em ratio×(F100%−F0%)))]. Dose-response curves were generated, and inhibitory concentration (IC50) values were calculated using non-linear regression curve fit in the Dotmatics' Studies Software (Bishops Stortford, UK).
Usually EC50 stands for the concentration that produces a half-maximal response. As for `Fc1cc(-c2c[nH]c3nc(C4CC4)ncc23)cn2c(C(F)F)cnc12` [Compound 359, 2-Cyclopropyl-5-(3-(difluoromethyl)-8-fluoroimidazo[1,2-a]pyridin-6-yl)-7H-pyrrolo[2,3-d]pyrimidine], the EC50 came to 115 nM.

As to `OCc1cnc2c(F)cc(-c3c[nH]c4nc(C5CC5)ncc34)cn12` [Compound 363, (6-(2-Cyclopropyl-7H-pyrrolo[2,3-d]pyrimidin-5-yl)-8-fluoroimidazo[1,2-a]pyridin-3-yl)methanol], the EC50 was determined as 41.6 nM. With `CN1CCC(c2cnc3c(F)cc(-c4c[nH]c5nc(C6CC6)ncc45)cn23)CC1` [Compound 403, 2-Cyclopropyl-5-(8-fluoro-3-(1-methylpiperidin-4-yl)imidazo[1,2-a]pyridin-6-yl)-7H-pyrrolo[2,3-d]pyrimidine] the figure was 174 nM. With `C[C@H](Nc1ncc2c(-c3cnc4nccn4c3)c[nH]c2n1)C(F)(F)F` [Compound 464, (S)-5-(Imidazo[1,2-a]pyrimidin-6-yl)-N-(1,1,1-trifluoropropan-2-yl)-7H-pyrrolo[2,3-d]pyrimidin-2-amine] the figure was 9.5 nM; with `CC(C)(C)Cc1ncc2c(-c3cnc4nccn4c3)c[nH]c2n1` [Compound 490, 5-(Imidazo[1,2-a]pyrimidin-6-yl)-2-neopentyl-7H-pyrrolo[2,3-d]pyrimidine], 153 nM; with `Cn1cc2cc(-c3c[nH]c4nc(NCC(C)(C)F)ncc34)ccc2n1` [Compound 492, N-(2-Fluoro-2-methylpropyl)-5-(2-methyl-2H-indazol-5-yl)-7H-pyrrolo[2,3-d]pyrimidin-2-amine], 123 nM.

On to `Cc1nc2c(F)cc(-c3c[nH]c4nc(NCC5CN(C)C5)ncc34)cc2n1C` [Compound 493, 5-(4-Fluoro-1,2-dimethyl-1H-benzo[d]imidazol-6-yl)-N-((1-methylazetidin-3-yl)methyl)-7H-pyrrolo[2,3-d]pyrimidin-2-amine], for which the EC50 was 4700 nM.

As for `Cc1nc2c(F)cc(-c3c[nH]c4nc(N5CCC5)ncc34)cc2n1C(C)C` [Compound 494, 2-(Azetidin-1-yl)-5-(4-fluoro-1-isopropyl-2-methyl-1H-benzo[d]imidazol-6-yl)-7H-pyrrolo[2,3-d]pyrimidine], the EC50 is 227 nM. With `Cc1nc2c(F)cc(-c3c[nH]c4nc(NCC(C)C)ncc34)cc2n1C(C)C` [Compound 506, 5-(4-Fluoro-1-isopropyl-2-methyl-1H-benzo[d]imidazol-6-yl)-N-isobutyl-7H-pyrrolo[2,3-d]pyrimidin-2-amine] the figure was 1.7 nM; with `Cc1nc2c(F)cc(-c3c[nH]c4nc(NCC5(F)CCCCC5)ncc34)cc2n1C(C)C` [Compound 526, 5-(4-Fluoro-1-isopropyl-2-methyl-1H-benzo[d]imidazol-6-yl)-N-((1-fluorocyclohexyl)methyl)-7H-pyrrolo[2,3-d]pyrimidin-2-amine], 8.5 nM; with `Cc1nc2c(F)cc(-c3c[nH]c4nc(NCC5CCN(C)CC5)ncc34)cc2n1C(C)C` [Compound 529, 5-(4-Fluoro-1-isopropyl-2-methyl-1H-benzo[d]imidazol-6-yl)-N-((1-methylpiperidin-4-yl)methyl)-7H-pyrrolo[2,3-d]pyrimidin-2-a], 9.3 nM. With `Cc1nc2cc(F)c(-c3c[nH]c4nc(C5CC5)ncc34)cc2n1C(C)C` [Compound 539, 2-Cyclopropyl-5-(5-fluoro-1-isopropyl-2-methyl-1H-benzo[d]imidazol-6-yl)-7H-pyrrolo[2,3-d]pyrimidine] the figure was 40.8 nM; with `Cc1nc2ccc(-c3c[nH]c4nc(C5CC5)ncc34)c(F)c2n1C(C)C` [Compound 540, 2-Cyclopropyl-5-(7-fluoro-1-isopropyl-2-methyl-1H-benzo[d]imidazol-6-yl)-7H-pyrrolo[2,3-d]pyrimidine], 25.5 nM; with `Cc1nc2ncc(-c3c[nH]c4nc(CC(C)C)ncc34)cc2n1C(C)C` [Compound 585, 6-(2-Isobutyl-7H-pyrrolo[2,3-d]pyrimidin-5-yl)-1-isopropyl-2-methyl-1H-imidazo[4,5-b]pyridine], 17.9 nM. With `Cc1nc2ncc(-c3c[nH]c4nc(NCC(C)C)ncc34)cc2n1C(C)C` [Compound 594, N-Isobutyl-5-(1-isopropyl-2-methyl-1H-imidazo[4,5-b]pyridin-6-yl)-7H-pyrrolo[2,3-d]pyrimidin-2-amine] the figure was 5.6 nM; with `Cc1nc2cnc(-c3c[nH]c4ncncc34)cc2n1C(C)C` [Compound 627, 1-Isopropyl-2-methyl-6-(7H-pyrrolo[2,3-d]pyrimidin-5-yl)-1H-imidazo[4,5-c]pyridine], 71.3 nM; with `Cc1nc2cnc(-c3c[nH]c4nc(C5CCC5)ncc34)cc2n1C(C)C` [Compound 628, 6-(2-Cyclobutyl-7H-pyrrolo[2,3-d]pyrimidin-5-yl)-1-isopropyl-2-methyl-1H-imidazo[4,5-c]pyridine], 789 nM. For the compound `Cc1nc2ccc(-c3c[nH]c4nc(NCC(C)(C)F)ncc34)nc2n1CC(F)F` [Compound 643, 5-(3-(2,2-Difluoroethyl)-2-methyl-3H-imidazo[4,5-b]pyridin-5-yl)-N-(2-fluoro-2-methylpropyl)-7H-pyrrolo[2,3-d]pyrimidin-2-amine], the EC50 is 42.8 nM. With `Cc1nc2ccc(-c3c[nH]c4nc(C5CC5)ncc34)nc2n1C(C)C` [Compound 676, 5-(2-Cyclopropyl-7H-pyrrolo[2,3-d]pyrimidin-5-yl)-3-isopropyl-2-methyl-3H-imidazo[4,5-b]pyridine] the figure was 1.5 nM; with `CC(C)(C)Nc1ncc2c(-c3ccc4ncnn4c3)c[nH]c2n1` [Compound 718, 5-([1,2,4]Triazolo[1,5-a]pyridin-6-yl)-N-(tert-butyl)-7H-pyrrolo[2,3-d]pyrimidin-2-amine], 415 nM. With `c1nc2ccc(-c3c[nH]c4nc(C5CC5)ncc34)cn2n1` [Compound 720, 6-(2-Cyclopropyl-7H-pyrrolo[2,3-d]pyrimidin-5-yl)-[1,2,4]triazolo[1,5-a]pyridine] the figure was 200 nM; with `c1nc2ccc(-c3c[nH]c4nc(C5CCC5)ncc34)cn2n1` [Compound 721, 6-(2-Cyclobutyl-7H-pyrrolo[2,3-d]pyrimidin-5-yl)-[1,2,4]triazolo[1,5-a]pyridine], 852 nM; with `CC(C)(C)CNc1ncc2c(-c3ccc4ncnn4c3)c[nH]c2n1` [Compound 728, 5-([1,2,4]Triazolo[1,5-a]pyridin-6-yl)-N-neopentyl-7H-pyrrolo[2,3-d]pyrimidin-2-amine], 48.1 nM. In the case of `FC(F)(F)CNc1ncc2c(-c3ccc4ncnn4c3)c[nH]c2n1` [Compound 733, 5-([1,2,4]Triazolo[1,5-a]pyridin-6-yl)-N-(2,2,2-trifluoroethyl)-7H-pyrrolo [2,3-d]pyrimidin-2-amine], the EC50 is 23 nM. With `C[C@H](Nc1ncc2c(-c3ccc4ncnn4c3)c[nH]c2n1)C(F)(F)F` [Compound 735, (S)-5-([1,2,4]Triazolo[1,5-a]pyridin-6-yl)-N-(1,1,1-trifluoropropan-2-yl)-7H-pyrrolo[2,3-d]pyrimidin-2-amine] the figure was 78.7 nM; with `FC(F)(F)CCNc1ncc2c(-c3ccc4ncnn4c3)c[nH]c2n1` [Compound 736, 5-([1,2,4]Triazolo[1,5-a]pyridin-6-yl)-N-(3,3,3-trifluoropropyl)-7H-pyrrolo [2,3-d]pyrimidin-2-amine], 45.8 nM.
